Measured values from patent US12384771B2, “Pleuromutilin derivative containing thiazole-pyridine benzyl quaternary ammonium salt side chain and preparation method and use thereof” (SHAANXI UNIVERSITY OF SCIENCE AND TECHNOLOGY, priority 2022, dated 2025).
Counter-ions that a name gives are not always drawn.

What was measured:
[1] = system: carbapenem-resistant Acinetobacter baumannii (CR-AB) 18-184; assay: MIC, clinical drug-resistant bacteria; assay type: cell-based; conditions: CR-AB 18-184, read-out: Minimum inhibitory concentration against clinical drug-resistant bacteria
Experimental: (§1) The minimum inhibitory concentration (MIC) of the pleuromutilin derivative containing thiazole-pyridine benzyl quaternary ammonium salt side chain was tested with moxifloxacin as a positive control (purchased from Shanghai Macklin Biochemical Technology Co., Ltd.) using a microbroth dilution method. At the same time, the pleuromutilin derivative containing thiazole-pyridine benzyl quaternary ammonium salt side chain of the invention was compared with the marketed pleuromutilin antibiotics, such as retapamulin (purchased from Nanjing Chemlin Chemical Industry Co., Ltd.), tiamulin (purchased from Shanghai Yuanye Bio-Technology Co., Ltd) and valnemulin (purchased from Shanghai Acmec Biochemical Co., Ltd), in order to screen out pleuromutilin derivatives with better activity.
(§2) Clinical resistant bacteria include multidrug-resistant Pseudomonas aeruginosa (MDR-PA) 18-993, 18-756 and 18-126, multidrug-resistant Klebsiella pneumoniae (MDR-KP) 18-893, 18-754 and 18-1482, methicillin-resistant Staphylococcus aureus (MRSA) 18-171, 18-209 and 18-575, vancomycin-resistant Enterococcus faecalis (VRE) 18-94, 18-80 and 18-507, and carbapenem-resistant Acinetobacter baumannii (CR-AB) 18-184, 18-560 and 18-882, all the clinical drug-resistant strains were from Huashan Hospital, Fudan University.

[2] = system: carbapenem-resistant Acinetobacter baumannii (CR-AB) 18-560; assay: MIC, clinical drug-resistant bacteria; assay type: cell-based; conditions: CR-AB 18-560, read-out: Minimum inhibitory concentration against clinical drug-resistant bacteria
Experimental: as §1, §2

[3] = system: carbapenem-resistant Acinetobacter baumannii (CR-AB) 18-882; assay: MIC, clinical drug-resistant bacteria; assay type: cell-based; conditions: CR-AB 18-882, read-out: Minimum inhibitory concentration against clinical drug-resistant bacteria
Experimental: as §1, §2

[4] = system: methicillin-resistant Staphylococcus aureus (MRSA) 18-171; assay: MIC, clinical drug-resistant bacteria; assay type: cell-based; conditions: MRSA 18-171, read-out: Minimum inhibitory concentration against clinical drug-resistant bacteria
Experimental: as §1, §2

[5] = system: methicillin-resistant Staphylococcus aureus (MRSA) 18-209; assay: MIC, clinical drug-resistant bacteria; assay type: cell-based; conditions: MRSA 18-209, read-out: Minimum inhibitory concentration against clinical drug-resistant bacteria
Experimental: as §1, §2

[6] = system: methicillin-resistant Staphylococcus aureus (MRSA) 18-575; assay: MIC, clinical drug-resistant bacteria; assay type: cell-based; conditions: MRSA 18-575, read-out: Minimum inhibitory concentration against clinical drug-resistant bacteria
Experimental: as §1, §2

[7] = system: multidrug-resistant Klebsiella pneumoniae (MDR-KP) 18-1482; assay: MIC, clinical drug-resistant bacteria; assay type: cell-based; conditions: MDR-KP 18-1482, read-out: Minimum inhibitory concentration against clinical drug-resistant bacteria
Experimental: as §1, §2

[8] = system: multidrug-resistant Klebsiella pneumoniae (MDR-KP) 18-754; assay: MIC, clinical drug-resistant bacteria; assay type: cell-based; conditions: MDR-KP 18-754, read-out: Minimum inhibitory concentration against clinical drug-resistant bacteria
Experimental: as §1, §2

[9] = system: multidrug-resistant Klebsiella pneumoniae (MDR-KP) 18-893; assay: MIC, clinical drug-resistant bacteria; assay type: cell-based; conditions: MDR-KP 18-893, read-out: Minimum inhibitory concentration against clinical drug-resistant bacteria
Experimental: as §1, §2

[10] = system: multidrug-resistant Pseudomonas aeruginosa (MDR-PA) 18-126; assay: MIC, clinical drug-resistant bacteria; assay type: cell-based; conditions: MDR-PA 18-126, read-out: Minimum inhibitory concentration against clinical drug-resistant bacteria
Experimental: as §1, §2

[11] = system: multidrug-resistant Pseudomonas aeruginosa (MDR-PA) 18-756; assay: MIC, clinical drug-resistant bacteria; assay type: cell-based; conditions: MDR-PA 18-756, read-out: Minimum inhibitory concentration against clinical drug-resistant bacteria
Experimental: as §1, §2

[12] = system: multidrug-resistant Pseudomonas aeruginosa (MDR-PA) 18-993; assay: MIC, clinical drug-resistant bacteria; assay type: cell-based; conditions: MDR-PA 18-993, read-out: Minimum inhibitory concentration against clinical drug-resistant bacteria
Experimental: as §1, §2

[13] = system: vancomycin-resistant Enterococcus faecalis (VRE) 18-507; assay: MIC, clinical drug-resistant bacteria; assay type: cell-based; conditions: VRE 18-507; read-out: Minimum inhibitory concentration against clinical drug-resistant bacteria
Experimental: as §1, §2

[14] = system: vancomycin-resistant Enterococcus faecalis (VRE) 18-80; assay: MIC, clinical drug-resistant bacteria; assay type: cell-based; conditions: VRE 18-80; read-out: Minimum inhibitory concentration against clinical drug-resistant bacteria
Experimental: as §1, §2

[15] = system: vancomycin-resistant Enterococcus faecalis (VRE) 18-94; assay: MIC, clinical drug-resistant bacteria; assay type: cell-based; conditions: VRE 18-94; read-out: Minimum inhibitory concentration against clinical drug-resistant bacteria
Experimental: as §1, §2

[16] = Determination of solubility of compounds (HPLC); conditions: thermodynamic from solid
Experimental: Experimental method: representative compounds 2, 4 and 7 were selected for solubility determination, and retapamulin hydrochloride was used as a control. 1 mg of each sample was taken and quantitatively dissolved in a 10 mL volumetric flask, and the absorption peak area was measured by a high-performance liquid chromatography; then, the saturated solutions of the representative compounds 2, 4 and 7 and the control drug retapamulin were diluted 10-fold, and the absorption peak area was determined by HPLC; their respective solubility was obtained by calculating the absorption peak area.
The experimental instrument was Shimadzu LC-16, the chromatographic column was Hypersil C18 ODS (4.6×250 mm×5 μm), the flow rate was 1.0 mL/min, the detection wavelength was 300 nm, and the mobile phase was 0.05 mol/L of aqueous acetic acid solution:acetonitrile=30:70.

## C=C[C@]1(C)C[C@@H](OC(=O)CSc2nc(-c3cc[n+](Cc4ccc([N+](=O)[O-])cc4)cc3)cs2)[C@]2(C)[C@H](C)CC[C@]3(CCC(=O)[C@H]32)[C@@H](C)[C@@H]1O [Compound 7, 1-(4-(nitro)benzyl)-4-(2-(8-hydroxy-4,7,9,12-tetramethyl-3-oxo-7-vinyldecahydro-4,9a-propancyclopent[8]cyclen-5-yl)oxy)-2-oxoethyl)thiazol-4-yl)pyridyl bromide salt]
[1]
  MIC: 32 µg/mL
[2]
  MIC: 64 µg/mL
[3]
  MIC: 16 µg/mL
[4]
  MIC: 64 µg/mL
[5]
  MIC: 16 µg/mL
[6]
  MIC: 64 µg/mL
[7]
  MIC: 16 µg/mL
[8]
  MIC: 16 µg/mL
[9]
  MIC: 16 µg/mL
[10]
  MIC: 8 µg/mL
[11]
  MIC: 32 µg/mL
[12]
  MIC: 32 µg/mL
[13]
  MIC: 64 µg/mL
[14]
  MIC: 8 µg/mL
[15]
  MIC: 64 µg/mL
[16]; organic solvent or mixture
  solubility: 11300 µg/mL
[16]; pH 1.5, simulated gastric fluid
  solubility: 3450 µg/mL
[16]; pH 7, water
  solubility: 2540 µg/mL
